Experimental data reported in the NIST ThermoML archive (doi:10.1021/je9009442).

Test: wn = mass fraction of the nth substance listed
Settings: Liquid, inclined tube viscometer, w1 = 0.505

FC(F)C(F)(F)F [pentafluoroethane] + FCF
Settings | kinematic viscosity [m2/s]
256.15 K | 1.72e-07
258.15 K | 1.685e-07
260.15 K | 1.652e-07
262.15 K | 1.619e-07
264.15 K | 1.587e-07
266.15 K | 1.556e-07
268.15 K | 1.526e-07
270.15 K | 1.497e-07
272.15 K | 1.468e-07
274.15 K | 1.44e-07
276.15 K | 1.413e-07
278.15 K | 1.386e-07
280.15 K | 1.36e-07
282.15 K | 1.335e-07
284.15 K | 1.31e-07
286.15 K | 1.285e-07
288.15 K | 1.262e-07
290.15 K | 1.238e-07
292.15 K | 1.215e-07
294.15 K | 1.193e-07
296.15 K | 1.171e-07
298.15 K | 1.15e-07
300.15 K | 1.129e-07
302.15 K | 1.108e-07
304.15 K | 1.088e-07
306.15 K | 1.068e-07
308.15 K | 1.048e-07
310.15 K | 1.029e-07
312.15 K | 1.01e-07
314.15 K | 9.92e-08
316.15 K | 9.73e-08
318.15 K | 9.55e-08
320.15 K | 9.38e-08
322.15 K | 9.2e-08
324.15 K | 9.03e-08
326.15 K | 8.86e-08
328.15 K | 8.7e-08
330.15 K | 8.53e-08
332.15 K | 8.37e-08
334.15 K | 8.21e-08
336.15 K | 8.06e-08
